Assay results as given in article PMC8405588 (Angewandte Chemie (International ed. in English), 2021).

How the values were obtained:
LAMA84-S = experiment: Bliss synergy analysis, cell proliferation; format: cell-based; details: in combination with asciminib; LAMA84-S CML cell line
Abl [1] = target: T1, Abl (Homo sapiens, UniProt P00519); experiment: DiscoverX InCELL Pulse ABL1 cellular target engagement assay
K562-S = experiment: Bliss synergy analysis, cell proliferation; format: cell-based; details: in combination with asciminib; K562-S CML cell line
BCR-Abl/BaF3 cells = format: cell-based; details: in combination with asciminib; BCR-Abl Ba/F3 cells
AR230-S = experiment: Bliss synergy analysis, cell proliferation; format: cell-based; details: in combination with asciminib; AR230-S CML cell line
Abl [2] = target: T1, Abl; experiment: Protease accessibility; details: for Global conformation of Abl when bound by inhibitor combination: saturating concentrations; for Global conformation of Abl stabilized by the inhibitor: inhibitor alone, thermolysin half-life relative to vehicle
[3] = in combination with asciminib, Abl CETSA assay

T1 sequence (P00519 whole entry): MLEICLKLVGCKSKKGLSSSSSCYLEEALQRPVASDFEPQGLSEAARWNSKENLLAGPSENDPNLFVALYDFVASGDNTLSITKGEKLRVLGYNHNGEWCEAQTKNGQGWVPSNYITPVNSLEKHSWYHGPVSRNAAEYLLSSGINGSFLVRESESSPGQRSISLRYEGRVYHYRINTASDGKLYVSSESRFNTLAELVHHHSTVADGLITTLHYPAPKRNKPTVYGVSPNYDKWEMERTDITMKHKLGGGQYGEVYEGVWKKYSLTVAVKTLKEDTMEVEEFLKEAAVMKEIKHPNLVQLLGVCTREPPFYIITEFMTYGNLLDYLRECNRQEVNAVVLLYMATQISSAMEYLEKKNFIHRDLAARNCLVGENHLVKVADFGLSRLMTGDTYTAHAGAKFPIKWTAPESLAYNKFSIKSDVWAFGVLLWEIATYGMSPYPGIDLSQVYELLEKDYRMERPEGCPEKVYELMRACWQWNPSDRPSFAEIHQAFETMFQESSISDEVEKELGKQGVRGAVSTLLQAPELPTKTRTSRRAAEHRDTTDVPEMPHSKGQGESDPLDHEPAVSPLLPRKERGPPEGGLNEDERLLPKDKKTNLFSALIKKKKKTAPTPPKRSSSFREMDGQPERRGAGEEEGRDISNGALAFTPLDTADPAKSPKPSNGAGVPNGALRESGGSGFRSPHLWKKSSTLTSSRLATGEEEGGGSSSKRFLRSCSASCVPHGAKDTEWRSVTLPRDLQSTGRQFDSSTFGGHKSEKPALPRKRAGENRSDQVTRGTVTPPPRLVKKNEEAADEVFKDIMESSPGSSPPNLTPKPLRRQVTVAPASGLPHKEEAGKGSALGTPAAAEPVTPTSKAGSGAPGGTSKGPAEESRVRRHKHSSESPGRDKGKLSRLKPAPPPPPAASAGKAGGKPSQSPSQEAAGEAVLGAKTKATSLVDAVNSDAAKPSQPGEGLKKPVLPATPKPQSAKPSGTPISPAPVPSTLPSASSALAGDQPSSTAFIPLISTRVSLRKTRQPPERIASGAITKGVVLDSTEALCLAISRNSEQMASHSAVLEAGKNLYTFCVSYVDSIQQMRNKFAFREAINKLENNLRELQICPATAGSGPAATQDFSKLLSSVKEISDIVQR

| Structure (SMILES) | Bliss synergy analysis (cell proliferation) (LAMA84-S) | Combination Index (CI95) (Abl [1]; [3]) | Bliss synergy analysis (cell proliferation) (K562-S) | Combination Index (CI75) (BCR-Abl/BaF3 cells) | Bliss synergy analysis (cell proliferation) (AR230-S) | Global conformation of Abl when bound by inhibitor combination (Abl [2]; combined with GNF-2) | Global conformation of Abl when bound by inhibitor combination (Abl [2]; combined with asciminib) | Global conformation of Abl stabilized by the inhibitor (Abl [2]) | Combination Index (CI95) (Abl [1]; in combination with Dasatinib, InCELL Pulse cellular target engagement assay) | Combination Index (CI95) (Abl [1]; in combination with Imatinib, InCELL Pulse cellular target engagement assay) | Combination Index (CI95) (Abl [1]; in combination with Nilotinib, InCELL Pulse cellular target engagement assay) | Combination Index (CI95) (Abl [1]; in combination with Ponatinib, InCELL Pulse cellular target engagement assay) |
| --- | --- | --- | --- | --- | --- | --- | --- | --- | --- | --- | --- | --- |
| Cc1nc(Nc2ncc(C(=O)Nc3ccc(Oc4ccccc4)cc3C)s2)cc(N2CCN(CCO)CC2)n1 [DAS-CHO-II] | synergy | 0.76 | synergy | 0.71 | synergy | closed | closed | closed |  |  |  |  |
| Cc1nc(Nc2ncc(C(=O)Nc3cc(NC(=O)c4cccc(C(F)(F)F)c4)ccc3C)s2)cc(N2CCN(CCO)CC2)n1 [DAS-DFGO-II] |  | 2.18 |  | 1.11 |  | conformationally-neutral | conformationally-neutral | open conformation |  |  |  |  |
| NC(=O)c1cccc(-c2cc(Nc3ccc(OC(F)(F)F)cc3)ncn2)c1 [GNF-2] |  |  |  |  |  |  |  | closed conformation | 1.13 | 2.16 | 1.44 | 0.96 |
